According to patent US9089572B2, “Inhibitors of p97” (California Institute of Technology, priority 2008, dated 2015):

Experiments:
[1] = tested on: HTC116 WT; test: MTT cell growth assay, HTC116 WT; format: cell-based; settings: 48 or 72 h, read-out: Cell line inhibition of growth GI50 HTC116 WT
Method: (§1) To probe further the effect of compound 2 and related compounds 1, 3, 5, 6 and 7, various concentrations of these compounds were added to 13 different cell lines and incubated for 48 or 72 h. An MTT assay was then performed to evaluate cell growth and survival.

[2] = tested on: 13 different cell lines; test: MTT cell growth assay, summary across 13 different cell lines; format: cell-based; settings: read-out: 50% inhibition of growth (GI50) across the 13 different cell lines; range across 13 cell lines
Method: as §1
Data for the assay with MCF-7 cells and HeLa cells is shown in FIG. 21 and FIG. 22, respectively. […] Thus, compound 2 blocks p97-dependent processes in cells and also blocks the proliferation of cancer cell lines, illustrating its potential utility as an anti-proliferative drug to treat cancer.

[3] = target: T1, C522A-mp97 (Mus musculus, UniProt Q01853, C522A); test: In vitro ATP hydrolysis, C522A-mp97 mutant; format: biochemical, murine
T1 construct: made in house
T1 sequence (Q01853 whole entry C522A): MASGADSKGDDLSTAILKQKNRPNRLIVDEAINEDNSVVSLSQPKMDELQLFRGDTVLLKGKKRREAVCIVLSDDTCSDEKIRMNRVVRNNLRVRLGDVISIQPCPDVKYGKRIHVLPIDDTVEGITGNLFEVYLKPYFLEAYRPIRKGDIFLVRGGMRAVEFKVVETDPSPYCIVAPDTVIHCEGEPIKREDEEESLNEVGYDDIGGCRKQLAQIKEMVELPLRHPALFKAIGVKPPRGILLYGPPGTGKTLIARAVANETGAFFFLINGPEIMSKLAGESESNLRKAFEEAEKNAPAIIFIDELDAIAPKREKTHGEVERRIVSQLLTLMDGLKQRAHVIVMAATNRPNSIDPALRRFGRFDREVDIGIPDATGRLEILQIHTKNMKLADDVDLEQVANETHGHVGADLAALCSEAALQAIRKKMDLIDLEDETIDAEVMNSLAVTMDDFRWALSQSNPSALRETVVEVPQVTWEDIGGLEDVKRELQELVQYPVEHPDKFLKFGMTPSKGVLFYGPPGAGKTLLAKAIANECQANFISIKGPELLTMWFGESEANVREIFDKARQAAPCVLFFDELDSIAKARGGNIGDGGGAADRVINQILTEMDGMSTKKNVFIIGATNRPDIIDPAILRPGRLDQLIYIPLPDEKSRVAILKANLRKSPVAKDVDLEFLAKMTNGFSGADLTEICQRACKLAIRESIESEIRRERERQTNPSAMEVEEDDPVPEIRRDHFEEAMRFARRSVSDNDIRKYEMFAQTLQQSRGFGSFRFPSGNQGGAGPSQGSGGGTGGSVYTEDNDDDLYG
Method: (§2) Compounds were tested for their ability to inhibit the ATPase activity of purified wild type murine p97 and T532C-Cdc48, a mutant of yeast Cdc48 in which the residue analogous to cysteine 522, threonine 532, was converted to cysteine.
(§3) To determine whether cysteine 522 is necessary for inhibition of p97 by compound 2, a mutant of p97 was constructed in which cysteine 522 was converted to either alanine (C522A-mp97) or threonine (C522T-mp97). The IC50 values of compound 2 were measured the against various enzymes during a 20-minute preincubation (see Table 2). Mutation of cysteine 522 in p97 to either alanine or threonine decreased sensitivity to compound 2 by greater than 100-fold. On the other hand, yeast Cdc48, which normally is quite resistant to compound 2, became nearly 30-fold more sensitive to the compound upon introduction of a cysteine in place of threonine 532.

[4] = target: T2, C522T-mp97 (Mus musculus, UniProt Q01853, C522T); test: In vitro ATP hydrolysis, C522T-mp97 mutant; format: biochemical, murine; settings: 20-minute preincubation
T2 construct: made in house
T2 sequence (Q01853 whole entry C522T): as the sequence (Q01853 whole entry C522A) above, with A522T counted along it
Method: as §2, §3

[5] = tested on: HCT116 p53−/−; test: MTT cell growth assay, HCT116 p53−/−; format: cell-based; settings: Homo sapiens, HCT-116, 48 or 72 h, read-out: Cell line inhibition of growth GI50 HCT116 p53−/−
Method: as §1

[6] = target: cysteine 522 of p97 (Mus musculus, UniProt Q01853); test: Tandem mass spectrometry of tryptic peptides of inhibited p97; format: binding; settings: trypsin digest, HPLC
Chain of cysteine 522 of p97 (Q01853 whole entry): as the sequence (Q01853 whole entry C522A) above, with A522C counted along it
Method: To determine if inhibition by compound 2 requires a reactive thiol, the experiment was repeated with p97 except that various nucelophiles were included during the preincubation. […] To evaluate whether compound 2 modifies cysteine 522, inhibited p97 was digested with trypsin and peptides were fractionated by HPLC and analyzed by tandem mass spectrometry.

`C=CC(=O)Nc1ncnc2c1c(-c1ccccc1)nn2C(C)(C)C` [Compound 2] showed a GI50 [1] of 2.4 ± 1.2 µM, a GI50 [2] of 0.4 to 5.1 µM and an IC50 ([3]; 20-minute preincubation) of 110 ± 33 µM. For the same compound, the “decrease in sensitivity on mutation of cysteine 522 in p97 to alanine or threonine” value ([3]; C522A or C522T vs wild type p97) was “greater than 100 fold”, the IC50 [4] was 82 ± 45 µM and the GI50 [5] was 2.5 ± 1.5 µM. The “covalent modification of cysteine 522” value [6] was “formed a covalent adduct on cysteine 522”.
